Laboratory results as given in patent US20230303510A1, “CYCLIZED ACETAMIDO DERIVATIVES AS DNA POLYMERASE THETA INHIBITORS” (Ideaya Biosciences, Inc., priority 2020, published 2023).

What was measured:
[1] = target: T1, Pol theta polymerase domain (residues 1819-2590) (Homo sapiens, UniProt O75417); experiment: Primer extension assay (inhibition of polymerase activity of Pol theta, molecular beacon fluorescence); type: biochemical; conditions: Pol theta polymerase domain 4 nM; fluorescence change over 30 min
T1 construct: Pol theta polymerase domain (residues 1819-2590) at a final concentration of 4 nM
T1 sequence (O75417 1819-2590): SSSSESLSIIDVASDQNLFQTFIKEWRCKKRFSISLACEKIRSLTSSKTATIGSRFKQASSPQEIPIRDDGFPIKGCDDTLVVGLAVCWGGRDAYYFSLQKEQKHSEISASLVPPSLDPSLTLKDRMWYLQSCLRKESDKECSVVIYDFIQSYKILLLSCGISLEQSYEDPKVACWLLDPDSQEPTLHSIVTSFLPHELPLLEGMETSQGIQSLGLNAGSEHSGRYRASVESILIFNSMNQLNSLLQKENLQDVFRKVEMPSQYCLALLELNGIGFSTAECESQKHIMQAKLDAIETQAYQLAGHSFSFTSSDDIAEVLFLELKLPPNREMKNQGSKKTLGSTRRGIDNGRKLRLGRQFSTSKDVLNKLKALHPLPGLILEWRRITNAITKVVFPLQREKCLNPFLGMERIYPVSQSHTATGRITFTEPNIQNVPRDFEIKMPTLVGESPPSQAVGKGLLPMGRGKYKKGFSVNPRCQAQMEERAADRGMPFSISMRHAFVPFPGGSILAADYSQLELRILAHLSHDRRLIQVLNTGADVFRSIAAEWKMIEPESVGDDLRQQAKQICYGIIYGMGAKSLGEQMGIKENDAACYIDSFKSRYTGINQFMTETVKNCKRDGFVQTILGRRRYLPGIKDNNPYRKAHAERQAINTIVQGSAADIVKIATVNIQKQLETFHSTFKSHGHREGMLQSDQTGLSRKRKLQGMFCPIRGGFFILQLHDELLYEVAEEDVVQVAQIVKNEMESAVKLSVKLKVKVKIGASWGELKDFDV
Method: The ability of the compounds of Formula (I) or Formula (II) to inhibit polymerase activity of Pol theta was determined using the primer extension assay as set forth below.
A mixture of 20 uL of Pol theta polymerase domain (residues 1819-2590) at a final concentration of 4 nM in assay buffer (20 m M TRIS, pH 7.80, 50 mM KCl, 10 mM MgCl2, 1 mM DTT, 0.01% BSA, 0.01% Tween20) was added to test compounds (11-point dilution series of test compounds) except the low control wells without test compounds. The above enzyme and test compound inhibitor mixture was then incubated at room temperature for 15 min. An equal volume (20 μl) of dNTP substrate mixture (48 μM) and primed molecular beacon DNA (obtained by annealing template SEQ ID NO:2: (5′-CCTTCCTCCCGTGTCTTG-TACCTTCCCGTCA-GGAGGAAGG-3′) with 5′-TAMRA and 3′-BHQ and primer DNA (SEQ ID NO:3; 5′-GACGGGAAGG-3′) in 10 mM Tris-HCl pH 8.0, 100 mM NaCl buffer) (96 nM) in assay buffer was added to all the test wells. The inhibition activity was measured by monitoring the fluorescence change over 30 min at 535 nm upon excitation at 485 nm. The high control (DMSO with enzyme) with high fluorescence intensity represents no inhibition of polymerase reaction while the low control (DMSO with buffer) with low fluorescence intensity represents full inhibition of polymerase activity. Slope of the reaction progress curves were used to calculate the rate of polymerization. The rates were used to determine the percent inhibition using a four-parameter inhibition model to generate IC50, Hill slope and max inhibition.

[2] = target: T2, Pol theta (residues 1819-2590) (Homo sapiens, UniProt O75417); experiment: PPi assay (inhibition of polymerase activity of Pol theta, PPiLite luminescence); type: biochemical; conditions: Pol theta 2.8 nM; luminescence kinetic mode 90 min
T2 construct: Pol theta polymerase domain (residues 1819-2590) at a final concentration of 4 nM
T2 sequence (O75417 1819-2590): T1 sequence (O75417 1819-2590)
Method: The ability of the compounds of Formula (I) or Formula (II) to inhibit polymerase activity of Pol theta was determined using the PPi assay as set forth below.
A mixture of template DNA strand (SEQ ID NO:4: 5′ ATTACTGACCTCATACTTCTGCCCTTCCATGTTCTGTGCCCTCCTTCC 3′) and primer DNA strand (SEQ ID NO:5: 5′ GGA AGG AGG GCA CAG AAC 3′) was annealed in 10 mM Tris-HCl pH 8.0, […] buffer to form the primed DNA substrate. A 10-point dilution series of compounds were used in a 384 well format for the inhibition assay. Pol theta (residues 1819-2590) (2.8 nM) in assay buffer (20 mM Tris-HCl pH 7.8, 50 mM KCl, 10 mM MgCl2, 1 mM DTT, 0.01% BSA, 0.01% Tween-20) was transferred to the test wells (10 uL), except for the low control wells. The plate was then incubated at room temperature for 15 mins. An equal volume (10 μL) of dNTP substrate (40 μM) and primed DNA substrate (800 nM) in assay buffer was added to all the test wells. 20 μL of PPi detection reagent (PPiLite inorganic pyrophosphate assay, Lonzo) was then added to all test wells. The plate was then centrifuged at 1000 rpm for 1 min. The reaction was monitored in a Tecan M1000 Pro plate reader in luminescence kinetic mode for 90 min. The high control (DMSO with enzyme) with high luminescence represents no inhibition of the polymerase reaction while the low control (DMSO with buffer) with low luminescence represents full inhibition of the polymerase activity. Slope of the reaction progress curves were used to calculate the rate of polymerization. The rates were used to determine the percent inhibition using a four-parameter inhibition model to generate IC50, Hill slope, maximum inhibition, and minimum inhibition.

SMILES	IC50 [1] [nM]	IC50 [2] [nM]
CN(C(=O)C1CCCN1c1nc(C(F)(F)F)cc(C(F)(F)F)c1C#N)c1ccc(F)cc1 (centres unmarked) [1.024, 1-(3-cyano-4,6-bis(trifluoromethyl)pyridin-2-yl)-N-(4-fluorophenyl)-N-methylpyrrolidine-2-carboxamide]	≤ 200	≤ 200
CC(=O)N[C@H]1C[C@@H](C(=O)N(C)c2ccc(F)cc2)N(c2cc(C(F)(F)F)cc(C(F)(F)F)n2)C1 [1.020, (2S,4S)-4-acetamido-1-(4,6-bis(trifluoromethyl)pyridin-2-yl)-N-(4-fluorophenyl)-N-methylpyrrolidine-2-carboxamide]	≤ 200	≤ 200
CN(C(=O)[C@@H]1[C@@H](O)CCN1c1cc(C(F)(F)F)cc(C(F)(F)F)n1)c1ccc(F)cc1 [1.019, (2S,3S)-1-(4,6-bis(trifluoromethyl)pyridin-2-yl)-N-(4-fluorophenyl)-3-hydroxy-N-methylpyrrolidine-2-carboxamide]	≤ 200	≤ 200
CN(C(=O)[C@H]1CCCN1c1cc(C(F)(F)F)cc(C(F)(F)F)n1)c1ccc(F)cc1 [1.002, (R)-1-(4,6-bis(trifluoromethyl)pyridin-2-yl)-N-(4-fluorophenyl)-N-methylpyrrolidine-2-carboxamide]	1000 to 10000	1000 to 10000
CC(=O)N[C@@H]1C[C@@H](C(=O)N(C)c2ccc(F)cc2)N(c2cc(C(F)(F)F)cc(C(F)(F)F)n2)C1 [1.022, (2S,4R)-4-acetamido-1-(4,6-bis(trifluoromethyl)pyridin-2-yl)-N-(4-fluorophenyl)-N-methylpyrrolidine-2-carboxamide]	≤ 200	≤ 200
CN(C(=O)C1COCCN1c1cc(C(F)(F)F)cc(C(F)(F)F)n1)c1ccc(F)cc1 (centres unmarked) [1.006, 4-(4,6-bis(trifluoromethyl)pyridin-2-yl)-N-(4-fluorophenyl)-N-methylmorpholine-3-carboxamide]	≤ 200	1000 to 10000
CN(C(=O)[C@@H]1CCCN1c1cc(C(F)(F)F)cc(C(F)(F)F)n1)c1ccc(F)cc1 [1.003, (S)-1-(4,6-bis(trifluoromethyl)pyridin-2-yl)-N-(4-fluorophenyl)-N-methylpyrrolidine-2-carboxamide]	≤ 200	≤ 200
